Measured values as given in the NIST ThermoML archive (doi:10.1016/j.jct.2016.03.040).
Numbers after ± are expanded uncertainties.

Test: mn = molality of the nth substance listed, in mol/kg
Conditions: 100 kPa, Liquid; for speed of sound: Frequency=3 MHz, Sing-around technique in a fixed-path interferometer; for mass density: Vibrating tube method

O=C(N[C@H](CO)[C@H](O)c1ccc([N+](=O)[O-])cc1)C(Cl)Cl + O
Conditions	mass density, 288.15 K [kg/m3]	mass density, 298.15 K [kg/m3]	mass density, 308.15 K [kg/m3]	mass density, 318.15 K [kg/m3]	speed of sound, 288.15 K [m/s]	speed of sound, 298.15 K [m/s]	speed of sound, 308.15 K [m/s]	speed of sound, 318.15 K [m/s]
m1 = 0.0005	999.273 ± 0.42	997.209 ± 0.42	994.205 ± 0.42	990.372 ± 0.42	1466.9 ± 1.9	1496 ± 1.9	1519.6 ± 1.9	1536.2 ± 1.9
m1 = 0.001	999.429 ± 0.42	997.363 ± 0.42	994.356 ± 0.42	990.522 ± 0.42	1467 ± 1.9	1496.1 ± 1.9	1519.7 ± 1.9	1536.4 ± 1.9
m1 = 0.002	999.643 ± 0.42	997.576 ± 0.42	994.56 ± 0.42	990.713 ± 0.42	1467.1 ± 1.9	1496.2 ± 1.9	1519.9 ± 1.9	1536.5 ± 1.9
m1 = 0.004	999.922 ± 0.42	997.847 ± 0.42	994.831 ± 0.42	990.992 ± 0.42	1467.5 ± 1.9	1496.7 ± 1.9	1520.2 ± 1.9	1536.8 ± 1.9

NCC(=O)O [2-aminoacetic acid] + O
Conditions	mass density, 288.15 K [kg/m3]	mass density, 298.15 K [kg/m3]	mass density, 308.15 K [kg/m3]	mass density, 318.15 K [kg/m3]	speed of sound, 288.15 K [m/s]	speed of sound, 298.15 K [m/s]	speed of sound, 308.15 K [m/s]	speed of sound, 318.15 K [m/s]
m1 = 0.01095	999.494 ± 0.42	997.428 ± 0.42	994.433 ± 0.42	990.57 ± 0.42	1467.3 ± 1.9	1496.5 ± 1.9	1520 ± 1.9	1536.6 ± 1.9
m1 = 0.02116	999.815 ± 0.42	–	994.686 ± 0.42	990.869 ± 0.42	1467.9 ± 1.9	1497 ± 1.9	1520.6 ± 1.9	1537.1 ± 1.9
m1 = 0.04014	1000.41 ± 0.43	998.287 ± 0.43	995.236 ± 0.43	991.411 ± 0.42	1469 ± 1.9	1498 ± 1.9	1521.5 ± 1.9	1538 ± 1.9
m1 = 0.06033	1001.05 ± 0.44	–	995.832 ± 0.43	991.989 ± 0.43	1470.1 ± 1.9	1499 ± 1.9	1522.5 ± 1.9	1539 ± 1.9
m1 = 0.08023	1001.7 ± 0.45	999.548 ± 0.45	–	–	1471.2 ± 1.9	1500.1 ± 1.9	1523.5 ± 1.9	1540 ± 1.9
m1 = 0.1006	1002.36 ± 0.47	1000.17 ± 0.47	997.123 ± 0.46	993.251 ± 0.46	1472.4 ± 1.9	1501.2 ± 1.9	1524.5 ± 1.9	1540.9 ± 1.9
m1 = 0.15	1003.96 ± 0.52	1001.73 ± 0.51	–	994.665 ± 0.5	1475.2 ± 1.9	1503.8 ± 1.9	1527 ± 1.9	1543.3 ± 1.9
m1 = 0.2003	1005.57 ± 0.58	1003.28 ± 0.53	1000.2 ± 0.52	996.211 ± 0.56	1478 ± 2	1506.4 ± 1.9	1529.5 ± 1.9	1545.7 ± 1.9

NCC(=O)NCC(=O)O [glycylglycine] + O
Conditions	mass density, 288.15 K [kg/m3]	mass density, 298.15 K [kg/m3]	mass density, 308.15 K [kg/m3]	mass density, 318.15 K [kg/m3]	speed of sound, 288.15 K [m/s]	speed of sound, 298.15 K [m/s]	speed of sound, 308.15 K [m/s]	speed of sound, 318.15 K [m/s]
m1 = 0.01033	999.704 ± 0.42	997.627 ± 0.42	994.594 ± 0.42	990.758 ± 0.42	1467.7 ± 1.9	1496.8 ± 1.9	1520.3 ± 1.9	1536.9 ± 1.9
m1 = 0.02031	1000.23 ± 0.43	998.133 ± 0.43	995.135 ± 0.43	991.281 ± 0.42	1468.6 ± 1.9	1497.7 ± 1.9	1521.2 ± 1.9	1537.7 ± 1.9
m1 = 0.04035	1001.4 ± 0.45	999.259 ± 0.44	996.28 ± 0.44	992.375 ± 0.44	1470.5 ± 1.9	1499.5 ± 1.9	1522.8 ± 1.9	1539.3 ± 1.9
m1 = 0.06012	1002.5 ± 0.47	1000.39 ± 0.47	997.363 ± 0.47	993.41 ± 0.46	1472.4 ± 1.9	1501.3 ± 1.9	1524.4 ± 1.9	1540.8 ± 1.9
m1 = 0.0802	1003.7 ± 0.51	1001.51 ± 0.5	998.463 ± 0.49	994.52 ± 0.49	1474.3 ± 1.9	1503.1 ± 1.9	1526 ± 1.9	1542.4 ± 1.9
m1 = 0.1011	1004.84 ± 0.54	1002.62 ± 0.54	999.564 ± 0.54	995.646 ± 0.53	1476.3 ± 1.9	1505 ± 1.9	1527.7 ± 1.9	1544 ± 1.9
m1 = 0.1502	1007.57 ± 0.65	1005.27 ± 0.65	1002.18 ± 0.64	998.186 ± 0.63	1480.9 ± 2	1509.4 ± 2	1531.8 ± 2	1547.9 ± 2
m1 = 0.1995	1010.2 ± 0.77	1007.94 ± 0.72	1004.8 ± 0.7	1000.72 ± 0.74	1485.5 ± 2.2	1513.8 ± 1.9	1535.8 ± 1.9	1551.8 ± 2.1
